We go through nine compounds from BindingDB's records for patent US9926282 (Bristol-Myers Squibb, 2018).

The experiment concerns the target Rho-associated protein kinase 1 (Homo sapiens, UniProt Q13464). Kind of experiment: In Vitro Assay. As to the method:
Compounds were dissolved in DMSO so that the final concentration of DMSO was <2%, and the reaction was initiated with Rho kinase variants. After incubation, the reaction was terminated by the addition of EDTA and the phosphorylated and non-phosphorylated peptides separated using a LABCHIP 3000 Reader (Caliper Life Sciences). […] Compounds were tested in dose-response format, and the inhibition of kinase activity was calculated at each concentration of compound.

Structures are written as SMILES.

Rho-associated protein kinase 1, sequence (Q13464 whole entry): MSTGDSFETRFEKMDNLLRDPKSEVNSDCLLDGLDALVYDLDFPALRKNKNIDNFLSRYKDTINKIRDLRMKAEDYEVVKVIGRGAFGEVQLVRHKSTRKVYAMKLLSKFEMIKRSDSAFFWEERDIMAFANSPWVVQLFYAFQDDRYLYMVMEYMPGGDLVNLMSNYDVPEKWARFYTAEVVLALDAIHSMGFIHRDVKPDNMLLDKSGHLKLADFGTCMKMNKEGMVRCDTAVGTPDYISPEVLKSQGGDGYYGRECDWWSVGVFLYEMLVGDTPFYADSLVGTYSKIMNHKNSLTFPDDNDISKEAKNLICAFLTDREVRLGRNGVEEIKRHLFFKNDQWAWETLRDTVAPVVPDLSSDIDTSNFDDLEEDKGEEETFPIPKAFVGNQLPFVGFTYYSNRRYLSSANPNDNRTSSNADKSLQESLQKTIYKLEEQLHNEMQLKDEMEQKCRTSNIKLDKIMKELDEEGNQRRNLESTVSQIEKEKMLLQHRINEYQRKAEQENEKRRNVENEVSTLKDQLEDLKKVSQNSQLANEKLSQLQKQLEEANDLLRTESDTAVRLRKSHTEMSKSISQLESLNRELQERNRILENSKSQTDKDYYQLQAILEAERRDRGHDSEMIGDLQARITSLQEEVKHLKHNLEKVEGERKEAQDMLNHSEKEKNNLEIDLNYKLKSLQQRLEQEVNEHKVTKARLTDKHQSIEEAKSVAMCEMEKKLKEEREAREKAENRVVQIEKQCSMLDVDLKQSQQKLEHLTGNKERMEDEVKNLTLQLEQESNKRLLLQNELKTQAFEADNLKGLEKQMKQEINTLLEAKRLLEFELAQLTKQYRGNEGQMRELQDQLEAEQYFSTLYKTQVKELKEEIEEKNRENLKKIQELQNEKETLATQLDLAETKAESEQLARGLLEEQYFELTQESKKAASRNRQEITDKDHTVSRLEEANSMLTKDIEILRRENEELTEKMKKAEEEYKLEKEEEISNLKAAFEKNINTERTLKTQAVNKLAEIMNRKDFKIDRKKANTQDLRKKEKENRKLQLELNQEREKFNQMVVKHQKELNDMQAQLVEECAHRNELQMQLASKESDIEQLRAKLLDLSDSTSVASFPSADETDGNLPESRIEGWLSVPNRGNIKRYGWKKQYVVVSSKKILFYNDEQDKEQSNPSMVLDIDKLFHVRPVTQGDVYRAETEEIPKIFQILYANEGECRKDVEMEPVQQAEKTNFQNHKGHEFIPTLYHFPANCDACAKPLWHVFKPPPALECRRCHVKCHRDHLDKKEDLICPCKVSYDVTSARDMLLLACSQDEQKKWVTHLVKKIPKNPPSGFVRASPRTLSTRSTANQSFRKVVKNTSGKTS

On to `O=C(Nc1ccc(-c2n[nH]c(=O)c3ccccc23)cc1)c1cnn(CC(O)C(F)(F)F)c1` (centres undefined) [US9926282, Example 378], for which the IC50 is under 100 nM.
As for `O=C(Nc1ccc(-c2n[nH]c(=O)c3ccccc23)cc1)c1cc2ncccn2n1` [US9926282, Example 102], the figure is under 100 nM; as for `O=C(Nc1ccc(-c2n[nH]c(=O)c3ccccc23)c(Cl)c1)c1nn(CC2CNC2)c2ccccc12` [US9926282, Example 327], under 100 nM.
As for `O=C(Nc1ccc(-c2n[nH]c(=O)c3ccccc23)cc1)c1cnn(C2CCCC2)c1` [US9926282, Example 374], the figure is under 100 nM.
`CCc1c(C(=O)Nc2ccc(-c3n[nH]c(=O)c4ccccc34)cc2)nnn1-c1cccc(Cl)c1` [US9926282, Example 225] came in with an IC50 of under 100 nM.
`CCCn1cc(C(=O)Nc2ccc(-c3n[nH]c(=O)c4ccccc34)cc2)cn1` [US9926282, Example 382] had an IC50 of under 100 nM.
In turn, `O=C(Nc1ccc(-c2n[nH]c(=O)c3ccccc23)cc1)c1nn(CC2CCNCC2)c2ccccc12` [US9926282, Example 342] yielded an IC50 of under 100 nM.
As for `O=C(Nc1ccc(-c2n[nH]c(=O)c3ccccc23)cc1)c1cnn(C2CCCCC2)c1` [US9926282, Example 373], the figure is under 100 nM; as for `O=C(Nc1ccc(-c2n[nH]c(=O)c3ccccc23)cc1)c1c[nH]c2ncc(F)cc12` [US9926282, Example 120], under 100 nM.

The term IC50 denotes the concentration at which inhibition is half-maximal. Low readings indicate greater potency in that assay, high ones weaker potency in that assay.
